Values of other authors in paper PMC11432405, “Development of Novel Alaninamide Derivatives with Anticonvulsant Activity and Favorable Safety Profiles in Animal Models” (International Journal of Molecular Sciences, 2024).

Key:
Conditions in all cases: cited from earlier work
[1] = tested on: maximal electroshock (MES) seizures
[2] = tested on: 6 Hz (32 mA) seizures
[3] = tested on: 6 Hz (44 mA) seizures

In the case of `COC[C@@H](NC(C)=O)C(=O)NCc1ccccc1` [LCS, lacosamide], the “PI (TD50/ED50) MES” value ([1]; TD50 rotarod / ED50 MES) is given as 5.0, the “ED50 MES” value ([1]; mice i.p., TPE 0.5 h (LEV 1.0 h), same conditions) is given as 9.2 (8.5–10.0) mg/kg and the “PI (TD50/ED50) 6 Hz” value ([2]; TD50 rotarod / ED50 6 Hz (32 mA)) is given as 8.8. For the same compound, the “ED50 6 Hz (32 mA)” value ([2]; mouse, in vivo, ip) was 5.3 (3.5–7.8) mg/kg, the “PI (TD50/ED50) 6 Hz (44 mA)” value ([3]; TD50 rotarod / ED50 6 Hz (44 mA)) was 6.7 and the “ED50 6 Hz (44 mA)” value ([3]; mice i.p., TPE 0.5 h (LEV 1.0 h)) was 6.9 (5.4–8.6) mg/kg.
